The target in test [1] is T1, P-Selectin (Homo sapiens, UniProt P16109).
T1 construct: endogenous in cells
T1 sequence (P16109 42-830): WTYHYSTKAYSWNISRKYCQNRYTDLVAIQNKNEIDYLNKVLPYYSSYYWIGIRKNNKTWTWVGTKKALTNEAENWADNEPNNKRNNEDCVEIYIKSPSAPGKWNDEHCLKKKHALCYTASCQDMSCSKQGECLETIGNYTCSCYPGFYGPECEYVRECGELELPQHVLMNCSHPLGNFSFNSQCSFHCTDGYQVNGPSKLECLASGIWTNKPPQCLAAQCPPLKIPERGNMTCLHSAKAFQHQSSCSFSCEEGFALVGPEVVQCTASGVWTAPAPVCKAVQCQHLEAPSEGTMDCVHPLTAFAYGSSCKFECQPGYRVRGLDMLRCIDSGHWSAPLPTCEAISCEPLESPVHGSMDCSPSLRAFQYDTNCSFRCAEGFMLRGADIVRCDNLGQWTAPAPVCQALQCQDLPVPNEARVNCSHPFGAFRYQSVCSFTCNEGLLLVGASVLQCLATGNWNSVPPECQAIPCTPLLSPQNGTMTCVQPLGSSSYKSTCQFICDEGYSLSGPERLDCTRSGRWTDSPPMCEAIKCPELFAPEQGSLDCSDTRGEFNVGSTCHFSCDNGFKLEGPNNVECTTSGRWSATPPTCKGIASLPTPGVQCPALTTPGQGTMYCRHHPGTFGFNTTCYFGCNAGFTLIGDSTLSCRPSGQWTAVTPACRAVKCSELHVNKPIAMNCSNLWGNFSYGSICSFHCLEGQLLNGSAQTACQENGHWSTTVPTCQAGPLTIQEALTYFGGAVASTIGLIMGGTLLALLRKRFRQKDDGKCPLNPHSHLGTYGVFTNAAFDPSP
Briefly: Inhibition of neutrophil adhesion to thrombin activated platelets by glycolipids in liposomes. The test is classed as cell-based. The following applies: for IC50: read-out: AMOUNT REQUIRED FOR 50% INHIBITION
As for the experimental part:
3. For the assay, 20 μl of the platelet suspension (2×10^8 /ml) was placed in a microcentrifuge tube. […] Twenty μl of the neutrophil preparation (2×10^6 /ml) was then added and the tubes were allowed to stand for a further 20 min at room temperature.
(§1) 4. Adhesion of activated platelets to the neutrophils was assessed microscopically. One hundred neutrophils were evaluated. They were scored as positive if 2 or more platelets were attached and negative if less than 2 platelets were bound. The percent of cells with 2 or more bound platelets was calculated.
This example describes experiments testing various glycolipid structures on liposomes. In particular, SY2, a sialylated polysaccharide in which the fucose, instead of being attached to the ultimate GlcNAc as in SLe^x, is attached to the penultimate GlcNAc, was tested. Platelets and neutrophils were isolated by the methods described above. Platelets were activated with thrombin and then incubated with dilutions of various glycolipids embedded in liposomes prepared as described above. Neutrophils were added and the effect of the glycolipids on the adhesion of neutrophils to activated platelets was determined.
Structures of the various glycolipids examined are as follows: SDiY2, NeuGcα2,3Galβ1,4(Fucα1,3)GlcNacβ1,3Galβ1,4 (Fucα1,3)GlcNAcβ1,3Galβ1,4Glcβ1,1Cer; SLe^x, NeuGcα2,3Galβ1,4 (Fucα1,3)GlcNAcβ1,3Galβ1,4Glcβ1,1Cer; SY2, NeuGcα2,3Galβ1,4 GlcNAcβ1,3Galβ1,4(Fucα1,3)GlcNAcβ1,3Galβ1,4Glcβ1,1Cer; SH, NeuGcα2,3Galβ1,4GlcNAcβ1,3Galβ1,4GlcNAcβ1,3Galβ1,4Glcβ1,1Cer; SPG, NeuGcα2,3Galβ1,4GlcNAcβ1,3Galβ1,4Glcβ1,1Cer.
All materials were prepared as described above. Platelets and neutrophils were isolated by the methods described. Platelets were activated with thrombin and then incubated with dilutions of various glycolipids contained in liposomes. Neutrophils were added and the effect of the glycolipids on the adhesion of neutrophils to activated platelets was determined.
The results of an experiment in which synthetic SLe^x (NeuAc) and a preparation of SLe^x prepared by enzymatic fucosylation of sialylparagloboside purified from bovine erythrocytes, SLe^x (NeuGc), were directly compared are shown in Table 4.

Test [2] has as its target T1, P-Selectin. In words: Oligosaccharide/polysaccharide inhibition of neutrophil adhesion to thrombin activated platelets. The class given is cell-based. Particulars: for IC50: Table 2, mean of three identical experiments, read-out: AMOUNT REQUIRED FOR 50% INHIBITION (converted). As for the experimental part:
Briefly, platelets and neutrophils were isolated by the methods described above. Platelets were activated with thrombin and then incubated with dilutions of various oligosaccharides. Neutrophils were added, and the effect of the saccharides on the adhesion of neutrophils to activated platelets was determined.
1. Platelets were isolated as described above and were activated (2×10^8 /ml) by incubation for 20 min at room temperature with thrombin at a final concentration of 0.25 U/ml.
2. Neutrophils were isolated by layering heparinized blood over Mono-Poly Resolving Medium (Ficoll-Hypaque-Flow Laboratories), followed by centrifugation for 25 min at 2000 rpm and then, a further 25 min at 2500 rpm as described above.
3. For the assay, 20 μl of the platelet suspension (2×10^8 /ml) was placed in a microcentrifuge tube. An equal volume of the oligosaccharide preparations at concentrations from 200 μg/ml to 0.3 μg/ml, or of glycolipid-liposome preparations (prepared as described above), at concentrations from 2 μg/ml to 0.25 μg/ml, was added and the tubes were allowed to stand at room temperature for 20 min. Twenty μl of the neutrophil preparation (2×10^6 /ml) was then added and the tubes were allowed to stand for a further 20 min at room temperature.
as §1
Briefly, platelets and neutrophils were isolated by the methods described above. Platelets were activated with thrombin and then incubated with dilutions of various oligosaccharides. Neutrophils were added and the effect of the saccharides on the adhesion of neutrophils to activated platelets was determined.
Platelets were isolated as described above and were activated (2×10^8 /ml) by incubation for 20 min at room temperature with thrombin at a final concentration of 0.25 U/ml.
Neutrophils were isolated by layering heparinized blood over Mono-Poly Resolving Medium (Ficoll-Hypaque, Flow Laboratories), followed by centrifugation for 25 min at […] and then, a further 25 min at 2500 rpm as described above.
For the assay, 20 μl of the platelet suspension (2×10^8 /ml) was placed in an Eppendorf centrifuge tube. An equal volume of the oligosaccharide preparations at concentrations from 500 μg/ml to 2.0 μg/ml was added and the tubes were allowed to stand at room temperature for 20 min. Twenty […] of the neutrophil preparation (2×10^6 /ml) was then added and the tubes were allowed to stand for a further 20 min at room temperature.
Adhesion of activated platelets to the neutrophils was assessed microscopically. One hundred neutrophils were evaluated. They were scored as positive if 2 or more platelets were attached and negative if less than 2 platelets were bound. The percent of cells with 2 or more bound platelets was calculated.

Where [3] appears, read: Table 3, experiment not specified.

With “NeuGcα2,3Galβ1,4GlcNAcβ1,3Galβ1,4GlcNAcβ1,3Galβ1,4Glcβ1,1Cer [SH, reference compound]”, the “AMOUNT REQUIRED FOR 50% INHIBITION” value on P-Selectin [1] (setting [3]) is on record as “No Inh”.
With “NeuGcα2,3Galβ1,4(Fucα1,3)GlcNacβ1,3Galβ1,4 (Fucα1,3)GlcNAcβ1,3Galβ1,4Glcβ1,1Cer [SdiY2]”, the IC50 on P-Selectin [1] (setting [3]) came to 0.36 µM.
Take `CC(=O)N[C@H]1[C@H]([C@H](O)[C@H](O)CO)O[C@@](O[C@H]2[C@@H](O)[C@@H](CO)O[C@@H](O[C@H]3[C@H](O[C@@H]4O[C@@H](C)[C@@H](O)[C@@H](O)[C@@H]4O)[C@@H](NC(C)=O)C(O)O[C@@H]3CO)[C@@H]2O)(C(=O)O)C[C@@H]1O` (some centres unmarked) [SLe^x (tetra), NeuAcα2,3Galβ1,4 (Fucα1,3)GlcNAc]: the IC50 at P-Selectin [2] is 54 µM. Further, the “times more required for 50% inhibition than of the SLe^x-hexasaccharide” value at P-Selectin [2] (tetrasaccharide versus hexasaccharide) is “approximately 20 times”.
With `CC(=O)N[C@H]1[C@H]([C@H](O)[C@H](O)CO)O[C@@](O[C@H]2[C@@H](O)[C@@H](CO)O[C@@H](O[C@H]3[C@H](O[C@@H]4O[C@@H](C)[C@@H](O)[C@@H](O)[C@@H]4O)[C@@H](NC(C)=O)C(O)O[C@@H]3CO)[C@@H]2O)(C(=O)O)C[C@@H]1O` (some centres unmarked) [SLe^x (NeUAc)], the IC50 on P-Selectin [1] (Table 4) came out at 0.67 µM.
As for “NeuGcα2,3Galβ1,4 GlcNAcβ1,3Galβ1,4(Fucα1,3)GlcNAcβ1,3Galβ1,4Glcβ1,1Cer [SY2]”, the IC50 at P-Selectin [1] (Table 3, Exp 1) was found to be 0.325 µM; on P-Selectin [1] (Table 3, Exp 2) it was 0.345 µM. Further, the “inhibition of P-Selectin mediated adhesion of neutrophils to thrombin activated platelets” value on P-Selectin [1] (in words, relative) was “equally as well as did SLe^x and SDiY2”.
For `CC(=O)N[C@H]1C(O)O[C@H](CO)[C@@H](O[C@@H]2O[C@H](CO)[C@H](O)[C@H](O)[C@H]2O)[C@@H]1O[C@@H]1O[C@@H](C)[C@@H](O)[C@@H](O)[C@@H]1O` (some centres unmarked) [Le^x, reference compound], at P-Selectin [2], the IC50 is 43 µM.
With `CC(=O)N[C@H]1[C@H](O[C@@H]2[C@@H](O)[C@H](O)O[C@H](CO)[C@@H]2O)O[C@H](CO)[C@@H](O[C@@H]2O[C@H](CO)[C@H](O)[C@H](O[C@]3(C(=O)O)C[C@H](O)[C@@H](NC(C)=O)[C@H]([C@H](O)[C@H](O)CO)O3)[C@H]2O)[C@@H]1O[C@@H]1O[C@@H](C)[C@@H](O)[C@@H](O)[C@@H]1O` [SLe^x (penta), NeuAcα2,3Galβ1,4-(Fucα1,3)GlcNacβ1,3Galβ], the IC50 at P-Selectin [2] was 2.2 µM.
With “NeuGcα2,3Galβ1,4GlcNAcβ1,3Galβ1,4Glcβ1,1Cer [SPG, reference compound]”, at P-Selectin [1] (setting [3]), the “AMOUNT REQUIRED FOR 50% INHIBITION” value is listed as “No Inh”.

The values above are taken from US5753631A, “Intercellular adhesion mediators” (Cytel Corporation, priority 1995, dated 1998).
